Assay results: ChEMBL document CHEMBL5465560, “Selectivity Literature for EUbOPEN Chemogenomic Library” (2024)
One block for each molecule: values may come before it.

Assays:
[1] = target: T1, Phosphatidylinositol 4,5-bisphosphate 3-kinase catalytic subunit delta isoform (Homo sapiens) (UniProt O00329); assay: Selectivity interaction (ActivX KiNativ screen (kinase selectivity in THP-1 cell lysates)) EUB0000639a PIK3CD; assay type: subcellular; details: lysate
T1 sequence (whole entry): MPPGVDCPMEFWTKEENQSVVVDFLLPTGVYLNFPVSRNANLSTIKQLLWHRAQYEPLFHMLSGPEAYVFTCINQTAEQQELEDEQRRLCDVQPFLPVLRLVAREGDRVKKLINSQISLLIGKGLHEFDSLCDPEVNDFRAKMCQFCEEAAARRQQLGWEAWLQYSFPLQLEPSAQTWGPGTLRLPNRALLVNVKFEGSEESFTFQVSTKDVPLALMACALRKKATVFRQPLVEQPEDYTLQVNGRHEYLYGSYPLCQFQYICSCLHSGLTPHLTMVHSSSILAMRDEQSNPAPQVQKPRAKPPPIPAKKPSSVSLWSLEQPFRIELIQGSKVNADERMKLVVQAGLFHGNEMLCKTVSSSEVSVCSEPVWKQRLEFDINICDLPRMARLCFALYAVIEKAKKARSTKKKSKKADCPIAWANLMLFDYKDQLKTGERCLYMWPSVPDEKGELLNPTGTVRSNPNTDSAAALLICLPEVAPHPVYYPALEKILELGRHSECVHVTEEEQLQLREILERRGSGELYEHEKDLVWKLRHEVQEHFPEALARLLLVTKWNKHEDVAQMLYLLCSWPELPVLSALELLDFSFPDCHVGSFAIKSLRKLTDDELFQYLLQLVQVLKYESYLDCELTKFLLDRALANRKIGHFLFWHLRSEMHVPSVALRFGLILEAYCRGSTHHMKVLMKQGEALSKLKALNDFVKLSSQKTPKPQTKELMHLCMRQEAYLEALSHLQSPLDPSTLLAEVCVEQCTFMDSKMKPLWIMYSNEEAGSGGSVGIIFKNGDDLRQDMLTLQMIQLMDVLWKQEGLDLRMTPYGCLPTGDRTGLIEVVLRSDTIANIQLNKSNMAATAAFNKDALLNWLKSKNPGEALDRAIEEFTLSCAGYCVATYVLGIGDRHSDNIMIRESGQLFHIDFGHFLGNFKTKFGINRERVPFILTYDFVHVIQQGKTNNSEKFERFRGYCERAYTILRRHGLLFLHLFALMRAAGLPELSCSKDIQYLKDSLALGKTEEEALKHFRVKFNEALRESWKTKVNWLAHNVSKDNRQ

[2] = target: T2, Tyrosine-protein kinase TXK (Homo sapiens) (UniProt P42681); assay: Selectivity interaction (Kinase panel (Z-LYTE Assay)) EUB0001632a TXK; details: at 10 µM
T2 sequence (whole entry): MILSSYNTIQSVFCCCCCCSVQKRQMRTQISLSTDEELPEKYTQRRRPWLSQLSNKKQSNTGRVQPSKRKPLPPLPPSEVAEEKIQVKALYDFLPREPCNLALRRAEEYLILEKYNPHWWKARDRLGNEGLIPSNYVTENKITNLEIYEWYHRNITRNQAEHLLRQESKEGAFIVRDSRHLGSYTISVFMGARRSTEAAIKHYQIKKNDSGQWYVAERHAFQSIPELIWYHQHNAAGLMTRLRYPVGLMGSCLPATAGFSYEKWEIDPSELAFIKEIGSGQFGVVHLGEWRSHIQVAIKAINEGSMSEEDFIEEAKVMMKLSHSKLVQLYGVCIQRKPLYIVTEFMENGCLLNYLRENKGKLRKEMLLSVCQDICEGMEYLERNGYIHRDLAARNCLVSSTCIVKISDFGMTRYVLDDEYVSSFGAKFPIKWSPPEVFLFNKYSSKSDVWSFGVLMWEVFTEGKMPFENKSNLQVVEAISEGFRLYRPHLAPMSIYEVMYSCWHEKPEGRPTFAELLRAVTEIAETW

[3] = target: Serine/threonine-protein kinase PRP4 homolog (Homo sapiens) (UniProt Q13523); assay: Selectivity interaction (KinomeScan (DiscoverX)) EUB0000695a PRPF4B; details: at 100 nM
Sequence of Serine/threonine-protein kinase PRP4 homolog (Homo sapiens) (Q13523 whole entry): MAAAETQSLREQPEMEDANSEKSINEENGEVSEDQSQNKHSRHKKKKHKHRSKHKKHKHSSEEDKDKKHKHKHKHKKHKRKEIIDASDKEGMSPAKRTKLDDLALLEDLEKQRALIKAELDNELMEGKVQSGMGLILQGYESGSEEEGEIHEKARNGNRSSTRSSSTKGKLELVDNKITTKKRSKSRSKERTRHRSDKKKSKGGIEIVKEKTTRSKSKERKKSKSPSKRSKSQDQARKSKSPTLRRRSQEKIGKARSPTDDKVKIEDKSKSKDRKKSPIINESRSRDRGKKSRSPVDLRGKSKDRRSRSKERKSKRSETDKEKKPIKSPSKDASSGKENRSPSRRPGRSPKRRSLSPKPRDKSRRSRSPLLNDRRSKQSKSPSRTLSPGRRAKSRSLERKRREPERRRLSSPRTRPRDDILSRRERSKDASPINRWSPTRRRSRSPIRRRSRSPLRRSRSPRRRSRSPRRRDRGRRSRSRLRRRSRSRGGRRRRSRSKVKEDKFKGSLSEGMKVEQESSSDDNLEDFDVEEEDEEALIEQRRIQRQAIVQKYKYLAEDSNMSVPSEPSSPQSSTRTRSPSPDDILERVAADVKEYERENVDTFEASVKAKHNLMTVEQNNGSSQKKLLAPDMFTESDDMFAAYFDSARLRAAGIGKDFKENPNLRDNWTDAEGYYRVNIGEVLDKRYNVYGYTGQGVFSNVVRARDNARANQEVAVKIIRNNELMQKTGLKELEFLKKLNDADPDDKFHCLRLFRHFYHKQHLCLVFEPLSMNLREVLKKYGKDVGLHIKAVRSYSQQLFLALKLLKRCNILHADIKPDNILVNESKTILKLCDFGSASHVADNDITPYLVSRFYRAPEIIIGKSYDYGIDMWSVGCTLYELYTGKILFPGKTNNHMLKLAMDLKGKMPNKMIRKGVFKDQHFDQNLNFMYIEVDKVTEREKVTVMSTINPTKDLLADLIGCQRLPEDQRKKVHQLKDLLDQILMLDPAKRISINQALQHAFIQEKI

[4] = target: Dual specificity tyrosine-phosphorylation-regulated kinase 1B (Homo sapiens, UniProt Q9Y463); assay: Selectivity interaction (KinomeScan (DiscoverX)) EUB0000045b DYRK1B
Sequence of Dual specificity tyrosine-phosphorylation-regulated kinase 1B (Q9Y463 whole entry, looked up): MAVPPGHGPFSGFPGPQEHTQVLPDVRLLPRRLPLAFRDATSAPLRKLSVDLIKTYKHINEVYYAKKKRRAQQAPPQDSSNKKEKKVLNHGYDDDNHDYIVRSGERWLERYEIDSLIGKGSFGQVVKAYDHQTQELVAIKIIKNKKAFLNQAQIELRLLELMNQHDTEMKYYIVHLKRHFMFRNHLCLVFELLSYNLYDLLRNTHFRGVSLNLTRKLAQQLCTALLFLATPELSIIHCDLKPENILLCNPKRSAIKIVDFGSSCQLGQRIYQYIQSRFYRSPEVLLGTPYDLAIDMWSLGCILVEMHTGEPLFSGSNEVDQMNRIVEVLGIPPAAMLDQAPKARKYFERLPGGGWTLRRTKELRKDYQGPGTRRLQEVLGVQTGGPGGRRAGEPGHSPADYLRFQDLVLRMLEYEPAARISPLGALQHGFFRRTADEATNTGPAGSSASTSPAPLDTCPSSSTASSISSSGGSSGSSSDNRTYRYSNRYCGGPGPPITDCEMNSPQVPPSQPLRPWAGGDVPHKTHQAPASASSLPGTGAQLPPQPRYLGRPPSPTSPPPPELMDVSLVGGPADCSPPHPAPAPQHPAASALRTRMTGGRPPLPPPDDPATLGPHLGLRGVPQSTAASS

[5] = target: T3, Serine/threonine-protein kinase DCLK1 (Homo sapiens) (UniProt O15075); assay: Selectivity interaction (Kinase panel (DSF assay)) EUB0001559a DCLK1
T3 sequence (whole entry): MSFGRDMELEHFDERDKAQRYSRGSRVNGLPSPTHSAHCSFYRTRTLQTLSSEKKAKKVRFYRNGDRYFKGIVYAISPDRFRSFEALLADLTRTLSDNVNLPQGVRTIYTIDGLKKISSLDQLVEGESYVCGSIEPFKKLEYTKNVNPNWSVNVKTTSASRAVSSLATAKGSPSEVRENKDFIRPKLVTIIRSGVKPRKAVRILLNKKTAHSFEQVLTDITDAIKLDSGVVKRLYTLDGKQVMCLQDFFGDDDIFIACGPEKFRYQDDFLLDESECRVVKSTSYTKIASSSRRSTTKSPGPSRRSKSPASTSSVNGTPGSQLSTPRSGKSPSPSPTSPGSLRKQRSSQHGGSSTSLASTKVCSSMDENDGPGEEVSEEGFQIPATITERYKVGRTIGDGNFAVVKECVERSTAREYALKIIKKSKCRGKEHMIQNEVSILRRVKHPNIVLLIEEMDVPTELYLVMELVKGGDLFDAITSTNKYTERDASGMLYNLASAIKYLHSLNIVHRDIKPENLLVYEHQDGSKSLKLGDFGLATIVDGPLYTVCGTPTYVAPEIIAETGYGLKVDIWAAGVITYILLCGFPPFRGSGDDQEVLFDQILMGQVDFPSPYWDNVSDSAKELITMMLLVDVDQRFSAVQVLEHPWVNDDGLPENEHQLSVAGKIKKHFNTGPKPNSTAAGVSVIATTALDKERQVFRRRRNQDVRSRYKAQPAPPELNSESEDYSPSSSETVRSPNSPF

[6] = target: Receptor tyrosine-protein kinase erbB-2 (Homo sapiens, UniProt P04626); assay: Selectivity interaction (SelectScreen profiling (Invitrogen)) EUB0000607a ERBB2; details: at 2 µM
Sequence of Receptor tyrosine-protein kinase erbB-2 (P04626 whole entry, canonical isoform): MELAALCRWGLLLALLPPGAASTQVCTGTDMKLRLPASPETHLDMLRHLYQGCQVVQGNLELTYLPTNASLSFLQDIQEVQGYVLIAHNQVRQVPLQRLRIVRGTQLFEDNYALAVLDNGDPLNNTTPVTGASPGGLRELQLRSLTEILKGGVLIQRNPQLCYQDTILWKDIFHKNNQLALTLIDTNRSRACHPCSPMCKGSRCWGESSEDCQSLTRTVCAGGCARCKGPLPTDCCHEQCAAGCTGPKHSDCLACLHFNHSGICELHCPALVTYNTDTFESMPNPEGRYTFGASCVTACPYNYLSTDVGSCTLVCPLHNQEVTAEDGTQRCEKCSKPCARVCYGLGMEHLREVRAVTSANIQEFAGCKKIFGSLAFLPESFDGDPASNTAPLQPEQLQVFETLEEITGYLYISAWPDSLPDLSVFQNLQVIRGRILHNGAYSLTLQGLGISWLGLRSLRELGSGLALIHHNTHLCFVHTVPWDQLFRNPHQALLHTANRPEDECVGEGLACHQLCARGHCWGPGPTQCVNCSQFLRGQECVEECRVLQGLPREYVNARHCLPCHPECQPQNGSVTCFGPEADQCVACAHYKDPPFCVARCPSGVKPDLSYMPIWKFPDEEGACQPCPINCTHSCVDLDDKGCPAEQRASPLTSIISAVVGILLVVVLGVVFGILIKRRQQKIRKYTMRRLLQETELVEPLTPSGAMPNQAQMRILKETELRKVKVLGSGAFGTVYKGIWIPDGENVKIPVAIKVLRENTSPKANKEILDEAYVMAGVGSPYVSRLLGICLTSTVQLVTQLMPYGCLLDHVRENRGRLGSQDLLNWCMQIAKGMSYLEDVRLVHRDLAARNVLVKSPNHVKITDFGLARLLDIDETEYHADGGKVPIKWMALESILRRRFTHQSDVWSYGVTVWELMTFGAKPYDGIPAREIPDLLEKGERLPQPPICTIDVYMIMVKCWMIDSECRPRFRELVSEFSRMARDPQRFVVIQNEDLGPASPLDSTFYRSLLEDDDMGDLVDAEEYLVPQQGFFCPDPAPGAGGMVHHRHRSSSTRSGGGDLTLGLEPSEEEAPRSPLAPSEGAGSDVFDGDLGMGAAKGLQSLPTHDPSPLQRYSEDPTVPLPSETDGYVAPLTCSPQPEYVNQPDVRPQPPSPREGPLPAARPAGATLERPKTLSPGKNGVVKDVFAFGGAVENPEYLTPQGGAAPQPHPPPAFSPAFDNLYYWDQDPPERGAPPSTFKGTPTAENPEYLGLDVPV

[7] = target: Phosphatidylinositol 4,5-bisphosphate 3-kinase catalytic subunit beta isoform (Homo sapiens) (UniProt P42338); assay: Selectivity interaction (Kinase panel (KiNativ target engagement assay in Jurkat cells)) EUB0001635a PIK3CB; assay type: cell-based; details: Selectivity number of off-targets 0.0, Selectivity number of targets 233.0, Source Knowledge https://www.sciencedirect.com/science/article/pii/S2451945619300674?via%3Dihub, at 1 µM
Sequence of Phosphatidylinositol 4,5-bisphosphate 3-kinase catalytic subunit beta isoform (Homo sapiens) (P42338 whole entry, looked up, canonical isoform): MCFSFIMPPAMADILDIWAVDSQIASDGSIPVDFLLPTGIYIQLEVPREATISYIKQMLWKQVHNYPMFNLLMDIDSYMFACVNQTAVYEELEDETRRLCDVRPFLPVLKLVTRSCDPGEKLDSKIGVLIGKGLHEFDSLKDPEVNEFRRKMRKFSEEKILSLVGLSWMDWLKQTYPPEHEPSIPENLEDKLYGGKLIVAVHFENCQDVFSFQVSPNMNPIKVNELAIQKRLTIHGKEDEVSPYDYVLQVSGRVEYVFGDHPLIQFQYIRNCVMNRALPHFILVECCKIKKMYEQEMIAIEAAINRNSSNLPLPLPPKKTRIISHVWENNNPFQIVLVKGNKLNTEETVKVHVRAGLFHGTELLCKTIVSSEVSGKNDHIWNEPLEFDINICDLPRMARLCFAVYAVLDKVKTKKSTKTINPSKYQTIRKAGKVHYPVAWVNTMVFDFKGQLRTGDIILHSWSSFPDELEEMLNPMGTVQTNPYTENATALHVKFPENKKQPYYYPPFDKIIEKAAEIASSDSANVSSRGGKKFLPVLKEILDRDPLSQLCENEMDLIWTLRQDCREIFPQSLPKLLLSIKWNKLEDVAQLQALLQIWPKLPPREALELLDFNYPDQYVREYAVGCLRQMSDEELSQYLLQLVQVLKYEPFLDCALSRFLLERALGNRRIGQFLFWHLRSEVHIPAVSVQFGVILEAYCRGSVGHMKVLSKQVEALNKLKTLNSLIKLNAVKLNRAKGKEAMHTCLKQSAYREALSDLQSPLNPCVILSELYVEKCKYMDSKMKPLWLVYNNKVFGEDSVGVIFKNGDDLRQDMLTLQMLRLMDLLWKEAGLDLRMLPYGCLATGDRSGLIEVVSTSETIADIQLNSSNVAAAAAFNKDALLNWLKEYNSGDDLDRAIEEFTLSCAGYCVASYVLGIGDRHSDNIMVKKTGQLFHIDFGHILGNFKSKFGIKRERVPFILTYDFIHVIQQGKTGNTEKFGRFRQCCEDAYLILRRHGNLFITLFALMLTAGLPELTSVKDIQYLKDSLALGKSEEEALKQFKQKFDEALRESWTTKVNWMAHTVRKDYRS

[8] = target: Phosphatidylinositol 4-kinase beta (Homo sapiens, UniProt Q9UBF8); assay: Selectivity interaction (KinomeScan (DiscoverX)) EUB0000666a PI4KB; details: at 10 µM
Sequence of Phosphatidylinositol 4-kinase beta (Q9UBF8 2-816 limits assumed): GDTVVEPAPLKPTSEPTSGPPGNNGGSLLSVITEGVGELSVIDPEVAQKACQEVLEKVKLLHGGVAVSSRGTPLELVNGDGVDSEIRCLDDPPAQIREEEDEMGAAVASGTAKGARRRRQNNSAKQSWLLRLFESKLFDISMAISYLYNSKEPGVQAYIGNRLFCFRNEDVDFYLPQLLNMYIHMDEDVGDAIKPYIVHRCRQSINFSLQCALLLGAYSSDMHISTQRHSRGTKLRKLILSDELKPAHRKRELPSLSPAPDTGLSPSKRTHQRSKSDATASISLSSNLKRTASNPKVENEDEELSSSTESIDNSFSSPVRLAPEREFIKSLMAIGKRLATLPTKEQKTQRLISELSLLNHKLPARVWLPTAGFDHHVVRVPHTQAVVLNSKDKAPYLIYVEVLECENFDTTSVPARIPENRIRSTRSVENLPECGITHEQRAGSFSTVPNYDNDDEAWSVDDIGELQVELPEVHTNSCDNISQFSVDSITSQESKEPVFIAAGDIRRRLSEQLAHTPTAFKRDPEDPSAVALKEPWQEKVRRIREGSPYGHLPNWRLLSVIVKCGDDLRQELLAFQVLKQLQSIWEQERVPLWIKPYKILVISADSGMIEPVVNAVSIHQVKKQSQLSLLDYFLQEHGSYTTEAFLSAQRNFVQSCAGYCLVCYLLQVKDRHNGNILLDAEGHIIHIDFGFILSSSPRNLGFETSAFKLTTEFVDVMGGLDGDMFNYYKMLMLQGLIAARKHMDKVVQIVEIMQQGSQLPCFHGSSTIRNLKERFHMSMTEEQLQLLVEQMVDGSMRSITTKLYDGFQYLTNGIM

- % of inhibition ([1]; at 0.01 µM): -1.5%
- % of inhibition ([1]; at 0.04 µM): -1.9%
- % of inhibition ([1]; at 0.2 µM): -4.2%
- % of inhibition ([1]; at 1 µM): 17.9%
- % of inhibition ([1]; at 5 µM): 22.6%
Structure (SMILES): CC[C@@H]1[C@H](F)C(=O)N[C@@H]1COc1nccc2cc(C(N)=O)c(OC)cc12 [ZIMLOVISERTIB]

- % of control [2]: 12.2%
Structure (SMILES): Cn1cc(-n2cnc3c(NCc4nc5cc(Cl)c(Cl)cc5[nH]4)nc(N4CCOCC4)nc32)cn1

Structure (SMILES): Cc1cc(F)c(C(=O)Nc2cccc(-c3nncn3C(C)C)n2)cc1-n1cnc(C2CC2)c1
- % of control [3]: 81%

Structure (SMILES): C=CC(=O)Nc1cc(-n2c(=O)ccc3cnc4ccc(-c5ccc(NS(C)(=O)=O)cc5)cc4c32)ccc1C
- % of control ([4]; at 1 µM): 100%
- % of control ([4]; at 10 µM): 81%

- dTM [5]: 0.8 K
Structure (SMILES): CN(C(=O)c1cnn2cccnc12)c1cc2c(cc1N1CCOCC1)C(=O)N(C[C@@H](F)C(C)(C)O)C2

Structure (SMILES): CNC(=O)Nc1ccc(-c2nc(N3CC4CCC(C3)O4)c3cnn(C4CCC5(CC4)OCCO5)c3n2)cc1
- % of inhibition [6]: 0%

Structure (SMILES): C=CC(=O)Nc1ccc(C(=O)Nc2[nH]nc3c2CN(C(=O)N[C@H](CN(C)C)c2ccccc2)C3(C)C)cc1
- % of engagement [7]: -21.2%

Structure (SMILES): O=C(NOC[C@H](O)CO)c1ccc(F)c(F)c1Nc1ccc(I)cc1F
- % of control [8]: 100%
